{
  "source": "patent US8241607B2",
  "about": "“Use of fructose-based compounds for the diagnosis of cancer” (priority 2005, dated 2012)",
  "key": {"MAPK pathway": {"tested_on": "MAPK pathway", "assay": "Western blot of MAPK pathway in PANC-1 cells", "assay_type": "cell-based", "details": "5.5 mM sugar, 48 h", "description": "FIG. 23 depicts Western blot analysis examining MAPK pathway expression in accordance with an embodiment of the present invention. PANC-1 pancreatic cancer cells were incubated in 2 mM glucose, 5.5 mM glucose or 5.5 mM fructose for 48 hours, after which Western blot analysis on total protein lysates was employed to examine phosphorylated MEK (pMEK), pRSK, and pCREB, and corresponding total MEK, RSK, and CREB levels.\nSeveral signal transduction pathways may be involved in fructose-mediated pancreatic cancer growth but given the importance of the MAPK pathway in proliferation, the inventors believed that MAPK was involved. In the MAPK pathway, MEK mediated phosphorylation of the p44/42 MAP kinase (ERK) is the first step in this cascade, which results in phosphorylation of p90^Rsk, leading to transcriptional activation of CREB, and AP1, activating gene transcription and promoting cellular growth. The inventors employed Western blot analysis to examine MAPK pathway expression in pancreatic cancer cells incubated in 2 mM glucose, 5.5 mM glucose, and 5.5 mM fructose for 48 hours. Levels of the active phosphorylated proteins, pERK, pRSK, and pMEK were normalized to total ERK, RSK, and MEK levels respectively, and compared between the fructose-, and glucose-treated PANC-1 cells."}, "AP1": {"tested_on": "AP1", "assay": "ELISA-based transbinding AP1 assay in MCF-7 cells", "assay_type": "cell-based", "details": "5.5 mM sugar, 24 h", "description": "FIG. 12 depicts an increase in AP1 activation in fructose-treated cells in accordance with an embodiment of the present invention. MCF-7 breast cancer cells were incubated in 2 mM glucose, or 5 mM glucose or fructose for 24 h, after which nuclear extracts were incubated with a biotinylated AP-1 probe in binding buffer. AP-1/AP1 probe complexes were next conjugated to a streptavidin-coated assay plate and detected using an AP-1 specific antibody, followed by binding of a horseradish-peroxidase conjugated secondary antibody, and detection by a colorimetric reagent. *, p<0.001.\nAlthough several signal transduction pathways are likely involved in the fructose-mediated enhanced breast cancer growth and while not wishing to be bound by any particular theory, the inventors believe that the MAP-kinase pathway is involved. The inventors have used Western blot analysis to examine the MAPK pathway in breast cancer cells incubated in 2 mM glucose, 5.5 mM glucose, and 5.5 mM fructose for 48 hours. […] Activation of MEK, and subsequently ERK results in phosphorylation of p90^Rsk, which leads to transcriptional activation of CREB and AP1, which bind to cAMP or AP1 response elements respectively, activating gene transcription and promoting cellular growth."}, "AP-1": {"tested_on": "AP-1", "assay": "AP-1 probe binding assay on nuclear extracts of a primary culture of a pancreatic tumor", "assay_type": "cell-based, human", "details": "5.5 mM sugar, 48 h", "description": "FIG. 24 depicts luciferase activity of PANC-1 cells and primary culture of surgically resected pancreatic tumor cells in accordance with an embodiment of the present invention. PANC-1 pancreatic cancer cells and a primary culture of a surgically resected pancreatic tumor were incubated in 2 mM glucose, 5.5 mM glucose or 5.5 mM fructose for 48 h, after which nuclear extracts were incubated with a biotinylated AP-1 probe, and detected by an antibody-linked colorimetric method. *, p<0.01\nIn separate experiments PANC-1 cells, and primary cultures of surgically resected pancreatic tumors were incubated in 2 mM glucose, or 5.5 mM glucose or 5.5 mM fructose for 48 h, after which nuclear extracts were incubated with a biotinylated AP-1 probe in binding buffer. AP-1/AP1 probe complexes were next conjugated to a streptavidin-coated assay plate and detected using an AP-1 specific antibody, followed by binding of a horseradish-peroxidase conjugated secondary antibody, and detection by a colorimetric reagent."}, "[1]": {"tested_on": "fructokinase-1 (FK-1) mRNA", "assay": "RT-PCR of fructokinase-1 mRNA in MCF-7 cells", "assay_type": "cell-based", "details": "MCF-7 grown in 5 mM fructose vs 2 mM and 5 mM glucose", "description": "FIG. 7 depicts fructokinase-1 expression in accordance with an embodiment of the present invention. Breast cancer cells (MCF-7) express Fructokinase-1 (FK-1). RT-PCR was used to measure fructokinase-1 (FK-1) mRNA levels in MCF-7 cells following growth in 2 mM glucose, 5.5 mM glucose, or 5.5 mM fructose for 24 h, and in two human breast cancers (BT 1 & 2), and matched adjacent normal breast tissue (NB 1 & 2) from the same individual. […] Human liver, and exclusion of template served as positive and negative controls.\nThe inventors used RT-PCR analysis and specific primer pairs (SEQ ID NO: 1 (3′[…]), SEQ ID NO: 2 (5′[…])) to examine fructokinase-1 (FK-1) mRNA levels in glucose- or fructose-treated breast cancer cells. […] Also examined were FK-1 mRNA levels in two surgically resected human breast cancers, and paired adjacent normal breast tissue from the same individual. FK-1 mRNA was detectable in both normal and tumor tissue."}, "GLUT-5 mRNA": {"tested_on": "GLUT-5 mRNA", "assay": "Real-time RT-PCR of GLUT-5 mRNA in PANC-1 cells", "assay_type": "cell-based", "details": "5.5 mM fructose, 24 h", "description": "FIG. 22 depicts […] mRNA levels in pancreatic cancer cells in accordance with an embodiment of the present invention. Quantitative real-time RT-PCR was used to measure GLUT-5 mRNA levels in pancreatic cancer cells (PANC-1), following culture in 2 mM glucose, 5.5 mM glucose, or 5.5 mM fructose for 4 h and 24 h.\nBrit J Biomed Sci 56(4): 285-292, 1999; Rogers S, Docherty S E, Slavin J L, Henderson and Best J D. Differential expression of GLUT12 in breast cancer and normal breast tissue. Cancer Letters 193(2): 225-233, 2003). […] Real-time RT-PCR was used to measure GLUT-5 mRNA expression following 2 mM, and 5.5 mM glucose-, and 5.5 mM fructose-treatment for 4 h, and 24 h respectively. GLUT-5 mRNA was expressed as the fold-change relative to GLUT-5 mRNA levels in 2 mM glucose-treated cells. As depicted in FIG. 22, at 4 h, GLUT-5 mRNA levels were low in both the 5.5 mM glucose-, and fructose-treated PANC-1 cells. […] This agrees with other studies which have reported fructose-induced GLUT-5 mRNA expression in colon cancer (74)."}},
  "data": [
    {"smiles": "O=C(CO)[C@@H](O)[C@H](O)[C@H](O)CO", "note": "[fructose]", "values": [
      {"measurement": "pERK expression", "setting": "MAPK pathway", "value": "highest"},
      {"measurement": "pMEK expression", "setting": "MAPK pathway", "value": "highest"},
      {"measurement": "pRSK expression", "setting": "MAPK pathway", "value": "highest"},
      {"measurement": "increase in AP1 activation", "setting": "AP1", "value": 3, "unit": "fold"},
      {"measurement": "increase in AP-1 activation compared to 2 mM glucose", "setting": "AP-1", "value": 2.1, "unit": "fold"},
      {"measurement": "FK-1 mRNA levels", "setting": "[1]", "value": "highest FK-1 levels"},
      {"measurement": "GLUT-5 mRNA levels relative to 2 mM glucose-treated cells", "setting": "GLUT-5 mRNA", "value": 1.5, "unit": "fold higher"},
      {"measurement": "GLUT-5 mRNA levels relative to 5.5 mM glucose-treated cells", "setting": "GLUT-5 mRNA", "value": 1.75, "unit": "fold higher"}
    ]}
  ]
}
